This experiment concerns the target T1, human GRIN1 (transcript variant NR1-3) and GRIN2D expressed in Xenopus oocytes (Homo sapiens, UniProt O15399).
T1 construct: GenScript (GRIN2D synthesis) SC115601; host or cells: Xenopus oocytes injected with cRNA (1 GluN1 : 2 GluN2)
Description: NR2D oocyte potentiation assay (two-electrode voltage clamp). Conditions: 10 uM test compound; glutamate and glycine 10 μM each; holding potential −40 mV. Format: cell-based. How it is done:
NR2D Oocyte Potentiation Assay. Xenopus oocytes (Xenopus 1, Dexter, Mich.) were initially separated from the lobes of an ovary using surgical forceps; they were then defolliculated by constant agitation at room temperature in OR-2 buffer (82.5 mM NaCl; 2.5 mM KCl; 1 mM MgCl2; 5 mM HEPES; pH 7.4) containing 2 mg/ml collagenase Type 1 (Fisher Scientific, USA) for 1.5-2 hours. The cells were then gently aspirated with a Pasteur pipette to remove the follicular tissue; this was followed by washing three times with OR-2 to remove all traces of collagenase. The oocytes were then washed in ND-96 (96 mM NaCl, 2 mM KCl, 1.8 mM CaCl2, 1 mM MgCl2, 5 mM HEPES, 50 ng/L gentamycin, 100 units/ml penicillin and 100 μg/ml streptomycin; pH 7.6) three times and this was followed by incubation in ND-96 at room temperature with mild agitation for 15 minutes; subsequently they were stored for at least 2 hours at 16° C. before sorting and selection for injection. Oocytes selected for injection were incubated overnight in ND-96 at 16° C.
The human GRIN1 (transcript variant NR1-3 (Origene, SKU #: SC115601, Rockville, Md.) and GRIN2D (NCBI locus NM_000836, sequence optimized and synthesized by GenScript) were linearized and transcribed using the mMessage mMachine kit (Life Technologies) and promoters SP6 (for GluN1) and T7 (for GluN2D). cRNAs were mixed together at a ratio of 1 GluN1:2 GluN2. Each oocyte was injected with 50 nL of cRNA and stored in ND96 (96 mM NaCl, 2 mM KCl, 1.8 mM CaCl2, 1 mM MgCl2, 5 mM HEPES, 50 ng/L gentamycin, 100 units/ml penicillin and 100 μg/ml streptomycin; pH 7.6) at 16° C. for 72 h prior to recording.
Currents were recorded using a two-electrode voltage-clamp amplifier (Oocyte Clamp OC-725C; Warner Instrument Corp, Hamden, Conn.), and digitized using Digidata 1550A and pClamp (v. 10) software (Molecular Devices, Sunnyvale, Calif.). Electrodes were filled with 3 M KCl and had resistances that ranged from 0.2-1 MO. All measurements were made at a holding potential of −40 mV. Cells were continuously perfused with oocyte recording solution containing 90 mM NaCl, 1 mM KCl, 0.5 mM BaCl2, and 10 mM HEPES (Ph 7.4). Glutamate and Glycine (co-agonists) were applied at respective concentrations of 10 μM each. Co-agonists were applied until a plateau was reached, and test compounds were then added in the continued presence of co-agonists until a new plateau was reached. After the addition of the last test compound concentration, the oocyte was washed with oocyte recording buffer. Fraction of current remaining was calculated as [(current in presence of test compound−background current)/(co-agonist current−background current)] and IC50 values were computed using Prism 6.0 (Graphpad).
T1 sequence (O15399 28-1336, other chains not shown): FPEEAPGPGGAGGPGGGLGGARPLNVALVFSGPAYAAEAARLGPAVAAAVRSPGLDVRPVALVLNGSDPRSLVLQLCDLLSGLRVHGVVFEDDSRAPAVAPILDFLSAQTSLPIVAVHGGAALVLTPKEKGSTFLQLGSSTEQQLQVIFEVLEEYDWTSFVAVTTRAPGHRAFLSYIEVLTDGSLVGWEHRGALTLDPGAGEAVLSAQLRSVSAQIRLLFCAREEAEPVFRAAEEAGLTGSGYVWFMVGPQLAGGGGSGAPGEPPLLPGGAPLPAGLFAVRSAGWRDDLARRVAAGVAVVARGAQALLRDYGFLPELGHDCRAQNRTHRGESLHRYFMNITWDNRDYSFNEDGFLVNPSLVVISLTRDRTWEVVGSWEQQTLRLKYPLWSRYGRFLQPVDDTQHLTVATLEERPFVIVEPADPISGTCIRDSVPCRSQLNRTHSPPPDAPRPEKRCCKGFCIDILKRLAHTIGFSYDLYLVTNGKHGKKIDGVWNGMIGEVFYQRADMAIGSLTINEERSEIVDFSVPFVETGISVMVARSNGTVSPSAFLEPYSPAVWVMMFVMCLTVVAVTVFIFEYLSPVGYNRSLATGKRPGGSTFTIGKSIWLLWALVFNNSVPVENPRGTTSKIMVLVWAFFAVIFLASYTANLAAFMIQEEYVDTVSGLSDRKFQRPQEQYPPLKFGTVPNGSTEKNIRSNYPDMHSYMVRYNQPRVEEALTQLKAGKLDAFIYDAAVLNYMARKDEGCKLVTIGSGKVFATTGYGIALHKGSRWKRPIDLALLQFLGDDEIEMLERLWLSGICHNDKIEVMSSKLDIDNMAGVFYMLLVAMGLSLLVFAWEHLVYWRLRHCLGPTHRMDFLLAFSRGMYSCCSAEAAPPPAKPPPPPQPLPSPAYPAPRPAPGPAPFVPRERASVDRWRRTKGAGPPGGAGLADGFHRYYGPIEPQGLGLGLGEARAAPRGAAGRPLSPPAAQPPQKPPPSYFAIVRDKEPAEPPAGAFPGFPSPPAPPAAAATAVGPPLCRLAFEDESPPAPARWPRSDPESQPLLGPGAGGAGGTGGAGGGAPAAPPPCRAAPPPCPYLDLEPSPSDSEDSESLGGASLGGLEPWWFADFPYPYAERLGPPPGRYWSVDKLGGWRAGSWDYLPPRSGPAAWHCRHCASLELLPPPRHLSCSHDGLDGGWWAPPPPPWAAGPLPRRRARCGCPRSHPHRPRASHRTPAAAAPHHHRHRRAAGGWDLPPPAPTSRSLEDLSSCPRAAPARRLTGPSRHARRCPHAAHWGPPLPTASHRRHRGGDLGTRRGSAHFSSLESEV
On to `C=Cc1c(-c2ccc(C(C)(C)C)cc2)nc2n(c1=O)CCCS2` [Example 32, 8-(4-(tert-butyl)phenyl)-7-vinyl-3,4-dihydro-2H,6H-pyrimido[2,1-b][1,3]thiazin-6-one], for which the activation at 10 µM was in the range of 10 to 100%.

Take `C=Cc1c(-c2ccc(C(C)(C)C)nc2)nc2n(c1=O)CCCS2` [Example 33, 8-(6-tert-butylpyridin-3-yl)-7-ethenyl-2H, 3H,4H,6H-pyrimido [2,1-b][1,3] thiazin-6-one]: the activation at 10 µM is 10 to 100%. Regarding `CC1CCc2nc(-c3ccc(C(C)(C)C)nc3)c(C#N)c(=O)n2C1` (stereo not drawn) [Example 34, 2-(6-(tert-butyl)pyridin-3-yl)-7-methyl-4-oxo-6,7,8,9-tetrahydro-4H-pyrido[1,2-a]pyrimidine-3-carbonitrile], the activation at 10 µM fell in the range of 10 to 100%. The same measure, in the same setting: in the case of `Cc1csc2nc(-c3ccc(C(C)(C)C)nc3)c(C#N)c(=O)n12` [Example 35, 7-(6-(tert-butyl)pyridin-3-yl)-3-methyl-5-oxo-5H-thiazolo[3,2-a]pyrimidine-6-carbonitrile] it was 100 to 500%. In the case of `CC(C)(C)c1ncc(-c2nc3n(c(=N)c2C#N)CCCS3)cc1F` [Example 40, 8-(6-(tert-butyl)-5-fluoropyridin-3-yl)-6-imino-3,4-dihydro-2H,6H-pyrimido[2,1-b][1,3]thiazine-7-carbonitrile], the activation at 10 µM is greater than 1000%.

`CC1CSc2nc(-c3cnc(C(C)(C)C)c(F)c3)c(C#N)c(=N)n2C1` (stereo not drawn) [Example 41, 8-(6-(tert-butyl)-5-fluoropyridin-3-yl)-6-imino-3-methyl-3,4-dihydro-2H,6H-pyrimido[2,1-b][1,3]thiazine-7-carbonitrile]: the activation at 10 µM was greater than 1000%. In the case of `CC1CSc2nc(-c3ccc(C4(C(F)(F)F)CC4)cc3)c(C#N)c(=O)n2C1` (stereo not drawn) [Example 46, 3-methyl-6-oxo-8-(4-(1-(trifluoromethyl)cyclopropyl)phenyl)-3,4-dihydro-2H,6H-pyrimido[2,1-b][1,3]thiazine-7-carbonitrile], the activation at 10 µM lay within 100 to 500%. As for `N#Cc1c(-c2ccc(C3(C(F)(F)F)CC3)cc2)nc2n(c1=O)CCCS2` [Example 47, 6-oxo-8-(4-(1-(trifluoromethyl)cyclopropyl)phenyl)-3,4-dihydro-2H,6H-pyrimido[2,1-b][1,3]thiazine-7-carbonitrile], the activation at 10 µM is 500 to 1000%. Turning to `CC1CSc2nc(-c3ccc(N4CC(C)(F)C4)nc3)c(C#N)c(=O)n2C1` (stereo not drawn) [Example 51, 8-(6-(3-fluoro-3-methylazetidin-1-yl)pyridin-3-yl)-3-methyl-6-oxo-3,4-dihydro-2H,6H-pyrimido[2,1-b][1,3]thiazine-7-carbonitrile], the “NR2D Oocyte % Potentiation @ 10 uM” value is given as “Inhibitor”. `CC1CSc2nc(-c3ccc(N4CC(C)(C)C4)nc3)c(C#N)c(=O)n2C1` (stereo not drawn) [Example 52, 8-(6-(3,3-dimethylazetidin-1-yl)pyridin-3-yl)-3-methyl-6-oxo-3,4-dihydro-2H,6H-pyrimido[2,1-b][1,3]thiazine-7-carbonitrile]: the “NR2D Oocyte % Potentiation @ 10 uM” value is recorded as “Inhibitor”. The same measure, in the same setting: in the case of `CC1(F)CN(c2ccc(-c3nc4n(c(=O)c3C#N)CCCS4)cn2)C1` [Example 53, 8-(6-(3-fluoro-3-methylazetidin-1-yl)pyridin-3-yl)-6-oxo-3,4-dihydro-2H,6H-pyrimido[2,1-b][1,3]thiazine-7-carbonitrile] it was “Inhibitor”; in that of `CC1(C)CN(c2ccc(-c3nc4n(c(=O)c3C#N)CCCS4)cn2)C1` [Example 54, 8-(6-(3,3-dimethylazetidin-1-yl)pyridin-3-yl)-6-oxo-3,4-dihydro-2H,6H-pyrimido[2,1-b][1,3]thiazine-7-carbonitrile], “Inhibitor”; in that of `N#Cc1c(-c2ccc(N3CC(F)(F)C3)nc2)nc2n(c1=O)CCCS2` [Example 55, 8-(6-(3,3-difluoroazetidin-1-yl)pyridin-3-yl)-6-oxo-3,4-dihydro-2H,6H-pyrimido[2,1-b][1,3]thiazine-7-carbonitrile], “Inhibitor”.

As for `CC1CSc2nc(-c3ccc(N4CC(F)(F)C4)nc3)c(C#N)c(=O)n2C1` (stereo not drawn) [Example 56, 8-(6-(3,3-difluoroazetidin-1-yl)pyridin-3-yl)-3-methyl-6-oxo-3,4-dihydro-2H,6H-pyrimido[2,1-b][1,3]thiazine-7-carbonitrile], the “NR2D Oocyte % Potentiation @ 10 uM” value was “Inhibitor”. With `N#Cc1c(-c2ccc(Br)nc2)nc2n(c1=O)CCCS2` [Example 57, 8-(6-bromopyridin-3-yl)-6-oxo-3,4-dihydro-2H,6H-pyrimido[2,1-b][1,3]thiazine-7-carbonitrile], the activation at 10 µM was 10 to 100%. `CC1CSc2nc(-c3cnc(C(C)(C)C)c(Br)c3)c(C#N)c(=O)n2C1` (stereo not drawn) [Example 58, 8-(5-bromo-6-(tert-butyl)pyridin-3-yl)-3-methyl-6-oxo-3,4-dihydro-2H,6H-pyrimido[2,1-b][1,3]thiazine-7-carbonitrile]: the activation at 10 µM was greater than 1000%. The same measure, in the same setting: then `COc1cc(-c2nc3n(c(=O)c2C#N)CC(C)CS3)cnc1C(C)(C)C` (stereo not drawn) [Example 59, 8-(6-(tert-butyl)-5-methoxypyridin-3-yl)-3-methyl-6-oxo-3,4-dihydro-2H,6H-pyrimido[2,1-b][1,3]thiazine-7-carbonitrile], with greater than 1000%.

Take `COc1cc(-c2nc3n(c(=O)c2C#N)CCCS3)cnc1C(C)(C)C` [Example 60, 8-(6-(tert-butyl)-5-methoxypyridin-3-yl)-6-oxo-3,4-dihydro-2H,6H-pyrimido[2,1-b][1,3]thiazine-7-carbonitrile]: the activation at 10 µM lay in the range of 500 to 1000%.

`CSc1cc(-c2nc3n(c(=O)c2C#N)CC(C)CS3)cnc1C(C)(C)C` (stereo not drawn) [Example 61, 8-(6-(tert-butyl)-5-(methylthio)pyridin-3-yl)-3-methyl-6-oxo-3,4-dihydro-2H,6H-pyrimido[2,1-b][1,3]thiazine-7-carbonitrile]: the activation at 10 µM was greater than 1000%. For `CSc1cc(-c2nc3n(c(=O)c2C#N)CCCS3)cnc1C(C)(C)C` [Example 62, 8-(6-(tert-butyl)-5-(methylthio)pyridin-3-yl)-6-oxo-3,4-dihydro-2H,6H-pyrimido[2,1-b][1,3]thiazine-7-carbonitrile], the activation at 10 µM was greater than 1000%. Regarding `CN(C)c1ccc(-c2nc3n(c(=O)c2C#N)CCCS3)cn1` [Example 66, 8-(6-(dimethylamino)pyridin-3-yl)-6-oxo-3,4-dihydro-2H,6H-pyrimido[2,1-b][1,3]thiazine-7-carbonitrile], the activation at 10 µM lay in the range of 10 to 100%. As to `CC(C)(C)c1ccc(-c2cc3n(c(=O)c2C#N)CCCS3)cc1` [Example 68, 8-(4-(tert-butyl)phenyl)-6-oxo-3,4-dihydro-2H,6H-pyrido[2,1-b][1,3]thiazine-7-carbonitrile], the activation at 10 µM is greater than 1000%. In the case of `CC1CSc2cc(-c3ccc(C(C)(C)C)nc3)c(C#N)c(=O)n2C1` (stereo not drawn) [Example 69, 8-(6-(tert-butyl)pyridin-3-yl)-3-methyl-6-oxo-3,4-dihydro-2H,6H-pyrido[2,1-b][1,3]thiazine-7-carbonitrile], the activation at 10 µM is greater than 1000%. The same measure, in the same setting: then `CC(C)(C)c1ccc(-c2cc3n(c(=O)c2C#N)CCCS3)cn1` [Example 70, 8-(6-(tert-butyl)pyridin-3-yl)-6-oxo-3,4-dihydro-2H,6H-pyrido[2,1-b][1,3]thiazine-7-carbonitrile], with greater than 1000%; and `CC1CSc2cc(-c3cnc(C(C)(C)C)nc3)c(C#N)c(=O)n2C1` (stereo not drawn) [Example 71, 8-(2-(tert-butyl)pyrimidin-5-yl)-3-methyl-6-oxo-3,4-dihydro-2H,6H-pyrido[2,1-b][1,3]thiazine-7-carbonitrile], with greater than 1000%; and `CC1CSc2cc(-c3ccc(C4(C)CC4)nc3)c(C#N)c(=O)n2C1` (stereo not drawn) [Example 72, 3-methyl-8-(6-(1-methylcyclopropyl)pyridin-3-yl)-6-oxo-3,4-dihydro-2H,6H-pyrido[2,1-b][1,3]thiazine-7-carbonitrile], with greater than 1000%. As to `C[C@H]1CSc2nc(-c3cnc(C(C)(C)C)nc3)c(C#N)c(=O)n2C1` [Example 73, (R)-8-(2-(tert-butyl)pyrimidin-5-yl)-3-methyl-6-oxo-3,4-dihydro-2H,6H-pyrimido[2,1-b][1,3]thiazine-7-carbonitrile], the activation at 10 µM is greater than 1000%.

For the origin of these results see US11807650B2, “NMDA receptor modulators and uses thereof” (Novartis AG, priority 2016, dated 2023).
